Test results taken from patent publication US20110166063A1 (priority 2008, published 2011).
Several values for one entry are separate records, joined by “and”; a condition that tells them apart may be missing. Equal values may be shown once. Marks after values point to notes of the source that are not given here. Square brackets hold non-standard residues; d marks the D form. Ends that are not written are not given here. Peptide text beside a SMILES is read from it.

How the values were obtained:
[1] = molecular target: T1, GPR54 G-Protein coupled receptor (Homo sapiens, UniProt Q969F8); assay: FLIPR calcium flux agonist assay on GPR54; type: cell-based; conditions: no release incubation; for EC50 (nM) / EC50: agonist activation at GPR54
T1 construct: host or cells: Chem-1 host cells
T1 sequence (Q969F8 whole entry): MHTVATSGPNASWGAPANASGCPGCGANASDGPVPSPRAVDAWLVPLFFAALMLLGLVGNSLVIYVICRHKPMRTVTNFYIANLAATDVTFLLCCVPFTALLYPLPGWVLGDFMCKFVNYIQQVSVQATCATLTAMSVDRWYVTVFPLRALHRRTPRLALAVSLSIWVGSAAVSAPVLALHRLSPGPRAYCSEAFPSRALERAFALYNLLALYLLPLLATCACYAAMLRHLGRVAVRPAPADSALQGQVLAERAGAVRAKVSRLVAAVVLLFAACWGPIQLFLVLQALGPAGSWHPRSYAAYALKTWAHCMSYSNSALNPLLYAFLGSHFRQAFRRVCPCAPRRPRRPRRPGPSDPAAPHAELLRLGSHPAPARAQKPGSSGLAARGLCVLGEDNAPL

[2] = Pharmacokinetic study of BNP conjugates, single IV dose in rats; type: in vivo, Sprague-Dawley rats; conditions: for Cmax: test article in plasma (non-releasable PEG-BNP or native BNP)
From the text: All animals were food fasted overnight.
Following the last collection point, the animals were euthanized. […]

[3] = Pharmacokinetic study of protegrin conjugates, single IV dose in rats; type: in vivo, Sprague-Dawley rats
Protocol: The weight range of the animals was 313-346 grams. All animals were food fasted overnight.
Following the last collection point, the animals were euthanized. Bioanalytical analysis: analysis of the plasma samples was conducted using non-validated LC-MS/MS methods.

db/db diabetic mice = assay: Blood glucose levels in db/db diabetic mice after i.p. injection; type: in vivo
Protocol: At different time points after dosing blood glucose levels were measured.
PBS saline solution and Dextran equivalent dose were administrated as negative controls.

[4] = Pharmacokinetic study of V681 (V13AD) conjugates, single IV dose in rats; type: in vivo, Sprague-Dawley rats; conditions: 1.0 mg/kg equivalent protein mass IV
From the text: The weight range of the animals was 311-346 grams. All animals were food fasted overnight. […] The predose sample was collected from the JVC.
Following the last collection point, the animals were euthanized.

[5] = 0.459 mg/kg equivalent protein mass IV, rats
[6] = test article in plasma (non-releasable PEG-BNP), 0.459 mg/kg equivalent protein mass IV, rats
[7] = protegrin-1 in plasma (released or native), […] equivalent protein mass IV
[8] = test compound in plasma (non-releasable conjugates, native PG-1), […] equivalent protein mass IV, Mean ± SD
[9] = BNP in plasma (released from conjugate or given as native), 0.459 mg/kg equivalent protein mass IV, rats
[10] = intact C2-FMOC-PEG2-40K-BNP, IV bolus, rats
[11] = rat, in vivo, protegrin-1 in plasma (released or native), 1.6 mg/kg equivalent protein mass IV

Molecule: [mono]-[mPEG-ButyrALD-30K]-[Kisspeptin-13] (LPNYNWNSFGLRF; also: mono-PEGylated with mPEG-ButyrALD 30K, site not given here; UniProt Q15726 109-121, looked up) [Ald30K-KP13]
- EC50 (nM) [1]: No activity

Molecule: [mono]-[mPEG2-Butyr-ALD-40K]-[BNP-32] [ButyrALD-40K-BNP]
- Cmax [2, 5]: 1410 ng/mL
- AUCINF [2, 6]: 41300 ng·h/mL
- CL [2, 6]: 0.185 mL/min/kg
- MRTlast [2, 6]: 1440 min
- T½ [2, 6]: 1570 min
- Vss [2, 6]: 0.631 L/kg

Molecule: [mono]-[4,7-CG-PEG2-FMOC-NHS-40K]-[protegrin-1] (RGGRLCYCRRRFCVCVGR-NH2; cysteine pairing not given here; also: releasable CG-PEG2-FMOC 40K PEG, site not given here; UniProt P32194 131-148, looked up) [CG-PEG2-FMOC-40K-PG-1, releasable PEG conjugate of protegrin-1]
- T1/2 (hr) [3, 7]: 1.95* hr
- Tmax [3, 7]: 1.8 min

Molecule: Insulin
- Blood glucose level, Mean (db/db diabetic mice; Ins 5 ug/mouse, time 0 hr, N = 5): 510 mg/dL
- Blood glucose level, Mean (db/db diabetic mice; Ins 5 ug/mouse, time 1 hr, N = 5): 265 mg/dL
- Blood glucose level, Mean (db/db diabetic mice; Ins 5 ug/mouse, time 2 hr, N = 5): 352 mg/dL
- Blood glucose level, Mean (db/db diabetic mice; Ins 5 ug/mouse, time 4 hr, N = 5): 587 mg/dL
- Blood glucose level, Mean (db/db diabetic mice; Ins 5 ug/mouse, time 8 hr, N = 5): 538 mg/dL
- Blood glucose level, Mean (db/db diabetic mice; Ins 5 ug/mouse, time 24 hr, N = 5): 538 mg/dL
- Blood glucose level, Mean (db/db diabetic mice; Ins 50 ug/mouse, time 0 hr, N = 5): 445 mg/dL
- Blood glucose level, Mean (db/db diabetic mice; Ins 50 ug/mouse, time 1 hr, N = 5): 210 mg/dL
- Blood glucose level, Mean (db/db diabetic mice; Ins 50 ug/mouse, time 2 hr, N = 5): 150 mg/dL
- Blood glucose level, Mean (db/db diabetic mice; Ins 50 ug/mouse, time 4 hr, N = 5): 550 mg/dL
- Blood glucose level, Mean (db/db diabetic mice; Ins 50 ug/mouse, time 8 hr, N = 5): 558 mg/dL
- Blood glucose level, Mean (db/db diabetic mice; Ins 50 ug/mouse, time 24 hr, N = 5): 541 mg/dL

Molecule: [mono]-[mPEG-Butyr-ALD-10K]-[BNP-32] [ButyrALD-10K-BNP]
- Cmax [2, 5]: 355 ng/mL
- AUCINF [2, 6]: 96.6 ng·h/mL
- CL [2, 6]: 79.17 mL/min/kg
- MRTlast [2, 6]: 22.1 min
- T½ [2, 6]: 16.3 min
- Vss [2, 6]: 2.27 L/kg

Molecule: ALD40K-PG-1 (RGGRLCYCRRRFCVCVGR-NH2; cysteine pairing not given here; also: mPEG2-butyraldehyde 40K conjugate; UniProt P32194 131-148, looked up) [mPEG2-40K-PG-1, non-releasable conjugate of protegrin-1 with mPEG2-butaraldehyde-40K]
- CL [3, 8]: 0.548 ± 0.207 mL/min/kg
- T1/2 [3, 8]: 648 ± 180 min
- Vss [3, 8]: 0.32 ± 0.131 L/kg

Molecule: GTSLSPPPESSGSPQQPGLSAPHSRQIPAPQGAVLVQREKDLPNYNWNSFGLRF-NH2 [KP54, Kisspeptin-54]
- EC50 [1]: 190 nM
- Fold change compared to metastin [1]: 16

Molecule: dextran-butyrALD-40K-insulin [Dex-Ins]
- Blood glucose level, Mean (db/db diabetic mice; Dex-Ins 250 ug/mouse i.p., time 0 hr, N = 4): 495 mg/dL
- Blood glucose level, Mean (db/db diabetic mice; Dex-Ins 250 ug/mouse i.p., time 1 hr, N = 4): 263 mg/dL
- Blood glucose level, Mean (db/db diabetic mice; Dex-Ins 250 ug/mouse i.p., time 2 hr, N = 4): 192 mg/dL
- Blood glucose level, Mean (db/db diabetic mice; Dex-Ins 250 ug/mouse i.p., time 4 hr, N = 4): 462 mg/dL
- Blood glucose level, Mean (db/db diabetic mice; Dex-Ins 250 ug/mouse i.p., time 8 hr, N = 4): 494 mg/dL
- Blood glucose level, Mean (db/db diabetic mice; Dex-Ins 250 ug/mouse i.p., time 24 hr, N = 4): 517 mg/dL
- decrease of db/db mice glucose levels (db/db diabetic mice; at 1 hr and 2 hr after administration, 250 ug/mouse i.p.): 40-60%

Molecule: CC[C@H](C)[C@H](NC(=O)[C@H](C)NC(=O)[C@H](CCCCN)NC(=O)[C@H](CC(C)C)NC(=O)[C@H](C)NC(=O)[C@@H](NC(=O)[C@H](Cc1c[nH]cn1)NC(=O)[C@H](CC(C)C)NC(=O)[C@@H](NC(=O)[C@@H](NC(=O)[C@H](CCCCN)NC(=O)[C@@H](C)NC(=O)[C@H](C)NC(=O)[C@H](CO)NC(=O)[C@H](CCCCN)NC(=O)[C@H](Cc1ccccc1)NC(=O)[C@@H](NC(=O)[C@H](CCCCN)NC(=O)[C@H](CC(C)C)NC(=O)[C@H](Cc1ccccc1)NC(=O)[C@H](CO)NC(=O)[C@H](CCCCN)NC(=O)[C@H](Cc1c[nH]c2ccccc12)NC(=O)[C@H](CCCCN)NC(C)=O)[C@@H](C)O)[C@@H](C)O)C(C)C)[C@@H](C)O)C(=O)N[C@@H](CO)C(=O)N[C@@H](CO)C(N)=O [V681 (V13AD), V681(V13AD), reference compound] (Ac-KWKSFLKTFKSA[dA]KTVLHTALKAISS-NH2)
- AUCINF [4]: 7210 ± 1430 ng·h/mL
- CL [4]: 2.37 ± 0.433 mL/min/kg
- Cmax [4]: 16500 ± 9670 ng/mL
- MRT [4]: 19.8 ± 4.8 min
- T1/2 [4]: 36.6 ± 23.4 min
- Vss [4]: 0.0477 ± 0.018 L/kg

Molecule: [mono]-[mPEG2-C2-fmoc-NHS-40K]-[BNP-32] [C2-FMOC-PEG2-40K-BNP]
- AUCINF [2, 9]: 162 ng·h/mL
- MRTlast [2, 9]: 110 min
- Tmax ([2]; BNP in plasma (released from conjugate or given as native), 0.459 mg/kg equivalent protein mass IV, rats, 0.459 mg/kg): 18 min and 19.8 min
- time released BNP stayed above 20 ng/mL ([2]; following C2-FMOC-PEG2-40K-BNP IV dosing): 8 h
- Peak concentration of the conjugate in plasma [2, 10]: 1300 ng/mL
- half-life of the conjugate in plasma [2, 10]: 900 min
- time plasma conjugate concentrations remained above 100 ng/mL [2, 10]: 24 h

Molecule: CC(C)C[C@H](NC(=O)[C@H](CCCNC(=N)N)NC(=O)CNC(=O)CNC(=O)[C@@H](N)CCCNC(=N)N)C(=O)N[C@H]1CSSC[C@@H](C(=O)N[C@H](C(=O)NCC(=O)N[C@@H](CCCNC(=N)N)C(N)=O)C(C)C)NC(=O)[C@H](C(C)C)NC(=O)[C@@H]2CSSC[C@H](NC(=O)[C@H](Cc3ccc(O)cc3)NC1=O)C(=O)N[C@@H](CCCNC(=N)N)C(=O)N[C@@H](CCCNC(=N)N)C(=O)N[C@@H](CCCNC(=N)N)C(=O)N[C@@H](Cc1ccccc1)C(=O)N2 [Protegrin-1, reference compound]
- AUC(0-inf) [3, 11]: 1160 ± 351 ng·h/mL
- Cmax [3, 11]: 2050 ± 601 ng/mL
- MRT last [3, 11]: 31.2 ± 3 min
- half-life [3, 11]: 21 min
- Tmax ([3]; rat, in vivo, protegrin-1 in plasma (released or native), 1.6 mg/kg equivalent protein mass IV, read-out: Tmax): 1.8 min
- clearance ([3]; rat, in vivo, test compound in plasma (non-releasable conjugates, native PG-1), 1.6 mg/kg equivalent protein mass IV, Mean ± SD): 24.5 mL/min/kg
- Vd ([3]; rat, in vivo, test compound in plasma (non-releasable conjugates, native PG-1), 1.6 mg/kg equivalent protein mass IV, Mean ± SD, read-out: Vss): 0.848 ± 0.36 L/kg

Molecule: (PG-1)-(ALD)22K-(PG-1) (RGGRLCYCRRRFCVCVGR-NH2; cysteine pairing not given here; also: two peptide copies linked by PEG-dibutyraldehyde 2K; UniProt P32194 131-148, looked up) [PG-1-PEG-2K-PG-1, non-releasable di-peptide conjugate with bi-functional PEG-butyraldehyde-2K]
- CL [3, 8]: 3.48 ± 0.455 mL/min/kg
- T1/2 [3, 8]: 438 ± 66 min
- Vss [3, 8]: 0.432 ± 0.0405 L/kg

Molecule: CC(C)C[C@H](NC(=O)CNC(=O)[C@H](Cc1ccccc1)NC(=O)[C@H](CO)NC(=O)[C@H](CC(N)=O)NC(=O)[C@H](Cc1c[nH]c2ccccc12)NC(=O)[C@H](CC(N)=O)NC(=O)[C@@H](N)Cc1ccc(O)cc1)C(=O)N[C@@H](CCCNC(=N)N)C(=O)N[C@@H](Cc1ccccc1)C(N)=O [KP10, Kisspeptin-10]
- EC50 [1]: 10 to 14 nM and 10 nM
- Fold change compared to metastin [1]: 1

Molecule: mono-[mPEG2-ButyrAldehyde-40K]-[Kisspeptin-54] (GTSLSPPPESSGSPQQPGLSAPHSRQIPAPQGAVLVQREKDLPNYNWNSFGLRF-NH2; also: mPEG2-ButyrAldehyde 40K conjugate, site not given here; UniProt Q15726 68-121, looked up) [Ald40K-KP54]
- EC50 (nM) [1]: No activity

Molecule: CC[C@H](C)[C@@H]1NC(=O)[C@H](CCCNC(=N)N)NC(=O)[C@H](CC(=O)O)NC(=O)[C@H](CCSC)NC(=O)[C@H](CCCCN)NC(=O)[C@H](CCCNC(=N)N)NC(=O)CNC(=O)[C@H](Cc2ccccc2)NC(=O)[C@@H](NC(=O)CNC(=O)[C@H](CO)NC(=O)CNC(=O)[C@H](CCC(N)=O)NC(=O)[C@@H](NC(=O)[C@H](CCSC)NC(=O)[C@H](CCCCN)NC(=O)[C@@H]2CCCN2C(=O)[C@@H](N)CO)C(C)C)CSSC[C@@H](C(=O)N[C@@H](CCCCN)C(=O)N[C@H](C(=O)N[C@@H](CC(C)C)C(=O)N[C@@H](CCCN=C(N)N)C(=O)N[C@@H](CCCN=C(N)N)C(=O)N[C@@H](Cc2cnc[nH]2)C(=O)O)C(C)C)NC(=O)CNC(=O)[C@H](CC(C)C)NC(=O)CNC(=O)[C@H](CO)NC(=O)[C@H](CO)NC(=O)[C@H](CO)NC(=O)[C@H](CO)NC1=O [BNP, Brain Natriuretic Peptide (BNP-32), reference compound]
- level at 0.03 h ([2]; male, Sprague-Dawley, rat, plasma, 0.03 hr after IV BNP administration, all animals, read-out: plasma concentration at first time point): < 20 ng/mL
